{"source": "paper PMC8317065", "about": "“UPLC-MS/MS Method for Analysis of Endocannabinoid and Related Lipid Metabolism in Mouse Mucosal Tissue” (Frontiers in Physiology, 2021)", "key": {"[1]": {"tested_on": "FAE metabolism", "test": "THL oral gavage: levels of FAEs in jejunum mucosa, lung and plasma", "format": "in vivo, mouse", "method": "(§1) Adult C57BL/6J male mice were food-deprived for 24 h prior to harvest with ad libitum access to water. To prevent coprophagia, animals were maintained on elevated wire-bottom cages for a 72-hour acclimation period and during the 24-hour food deprivation. One hour prior to harvest, mice received an oral gavage (100 μL of 10 mg/mL) of the DGL inhibitor, THL, in polyethylene glycol (PEG) or PEG alone as control. Jejunum intestinal epithelium and lungs were harvested as described above (see section “Tissue Harvest and Preparation for Enzyme Assays”).\n(§2) Frozen tissue samples were weighed and homogenized in 1.0 mL of methanol containing the internal standards [^2H5]-2-AG (500 pmol), [^2H4]-AEA (1 pmol), and [^2H4]-OEA (10 pmol). Lipids were extracted using chloroform (2.0 mL) prior to being washed with 1.0 mL 0.2-micron ultra-purified water. Following centrifugation (1,500 × g, 15 min, 4°C), the lower organic phase was collected and dried under N2 steam (99.998% pure). A second chloroform wash (1.0 mL) was then performed followed by another centrifugation (1,500 × g, 15 min, 4°C) and collection of the lower phase. Samples were reconstituted in 2.0 mL of chloroform and purified via open-bed silica gel column chromatography. Columns were washed with a 9:1 chloroform:methanol mixture to elute MAGs and FAEs for collection. Collected eluates were dried under N2 steam (99.998% pure) and resuspended in 0.2 mL of methanol:chloroform (1:1) prior to analysis via UPLC-MS/MS (see section “Quantitation of MAGs and FAEs”).\n(§3) Data was acquired using equipment described above (see section “UPLC-MS/MS Detection of Analytes”) and using the elution protocol described above (see section “Quantitation of MAG Biosynthetic Enzyme Activity Assay Products”). Cone voltage and collision energy for each analyte are as follows, respectively: AEA = 30 v, 14 v; [^2H4]-AEA = 26 v, 16v; OEA = 28 v, 16 v; [^2H4]-OEA = 48 v, 14 v; DHEA = 30 v, 50 v; 2-AG (20:4) = 30 v, 12 v; [^2H5]-2-AG = 25 v, 44v; 2-DG (22:6) = 34 v, 14 v; 2-PG (16:0) = 18 v, 10 v; 2-OG (18:1) = 42 v, 10 v; 2-LG (18:2) = 30 v, 10 v. MS/MS detection was in positive ion mode and capillary voltage set at 0.1 kV. Extracted ion chromatograms were used to quantify AEA (m/z = 348.3 > 62.0), [^2H4]-AEA (m/z = 352.3 > 66.1), OEA (m/z = 326.4 > 62.1), [^2H4]-OEA (m/z = 330.4 > 66.0), DHEA (m/z = 372.3 > 91.0), 2-AG (m/z = 379.3 > 287.3), [^2H5]-2-AG (m/z = 384.3 > 93.4), 2-DG (m/z = 403.3 > 311.1), 2-PG (m/z = 331.3 > 239.3), 2-OG (m/z = 357.4 > 265.2), and 2-LG (m/z = 355.3 > 263.3). Quantitation occurred using a stable isotope dilution method to detect protonated adducts of the ions [M + H] + in MRM mode. Acyl migration is known to occur in many MAG species following silica-gel purification, therefore the sum of 1-AG and 2-AG, 1-PG and 2-PG, 1-OG and 2-OG, and 1-DG and 2-DG are reported ([Stella et al., 1997]). The established lower limit of quantitation (LLOQ: signal to noise ratio >10) for 2-AG, 2-DG, 2-PG, 2-OG, and 2-LG was 0.5 pmol. The LLOQ for AEA, OEA, and DHEA was 0.008 pmol."}, "[2]": {"tested_on": "human recombinant DGL", "design": "method as in Bisogno et al., 2006", "conditions": "ref Bisogno et al., 2006, read-out: IC50 reported for human recombinant DGL; cited from earlier work"}, "[3]": {"tested_on": "MAG biosynthesis (DGL)", "test": "THL oral gavage: levels of MAGs in jejunum mucosa, lung and plasma", "format": "in vivo, mouse", "method": "as §1, §2, §3"}, "[4]": {"conditions": "THL 1 mg oral, 1 h prior to tissue harvest"}}, "data": [{"smiles": "CCCCCCCCCCC[C@@H](C[C@@H]1OC(=O)[C@H]1CCCCCC)OC(=O)[C@H](CC(C)C)NC=O", "note": "[THL, tetrahydrolipstatin]", "values": [{"measurement": "AEA level in jejunum mucosa", "setting": "[1]; THL 1 mg oral gavage 1 h prior to harvest, vehicle 2.85 ± 0.29", "result": "2.41 ± 0.24", "unit": "pmol/g"}, {"measurement": "AEA level in lung", "setting": "[1]; THL 1 mg oral gavage 1 h prior to harvest, vehicle 3.14 ± 0.14", "result": "2.85 ± 0.08", "unit": "pmol/g"}, {"measurement": "AEA level in plasma", "setting": "[1]; THL 1 mg oral gavage 1 h prior to harvest, vehicle 3.76 ± 0.07", "result": "3.11 ± 0.50", "unit": "pmol/mL"}, {"measurement": "DHEA level in plasma", "setting": "[1]; THL 1 mg oral gavage 1 h prior to harvest, vehicle 6.41 ± 0.76", "result": "5.62 ± 0.43", "unit": "pmol/mL"}, {"measurement": "DHEA level in lung", "setting": "[1]; THL 1 mg oral gavage 1 h prior to harvest, vehicle 14.25 ± 2.18", "result": "16.13 ± 1.19", "unit": "pmol/g"}, {"measurement": "DHEA level in jejunum mucosa", "setting": "[1]; THL 1 mg oral gavage 1 h prior to harvest, vehicle 14.53 ± 1.25", "result": "18.97 ± 5.08", "unit": "pmol/g"}, {"measurement": "OEA level in plasma", "setting": "[1]; THL 1 mg oral gavage 1 h prior to harvest, vehicle 41.19 ± 3.84", "result": "36.12 ± 2.36", "unit": "pmol/mL"}, {"measurement": "OEA level in jejunum mucosa", "setting": "[1]; THL 1 mg oral gavage 1 h prior to harvest, vehicle 52.23 ± 6.73", "result": "46.83 ± 9.00", "unit": "pmol/g"}, {"measurement": "OEA level in lung", "setting": "[1]; THL 1 mg oral gavage 1 h prior to harvest, vehicle 92.06 ± 4.99", "result": "83.75 ± 3.44", "unit": "pmol/g"}, {"measurement": "effect on levels of FAEs in jejunum mucosa vs vehicle", "setting": "[1]; [4]", "result": "no changes"}, {"measurement": "effect on levels of FAEs in lung tissue vs vehicle", "setting": "[1]; [4]", "result": "no changes"}, {"measurement": "effect on plasma concentrations of FAEs vs vehicle", "setting": "[1]; [4]", "result": "unaffected"}, {"measurement": "IC50", "setting": "[2]", "result": 60, "unit": "nM"}, {"measurement": "2-LG level in lung", "setting": "[3]; THL 1 mg oral gavage 1 h prior to harvest, vehicle 0.51 ± 0.10", "result": "1.13 ± 0.35", "unit": "nmol/g"}, {"measurement": "2-DG level in lung", "setting": "[3]; THL 1 mg oral gavage 1 h prior to harvest, vehicle 1.17 ± 0.07", "result": "1.02 ± 0.07", "unit": "nmol/g"}, {"measurement": "2-OG level in lung", "setting": "[3]; THL 1 mg oral gavage 1 h prior to harvest, vehicle 1.81 ± 0.13", "result": "2.25 ± 0.37", "unit": "nmol/g"}, {"measurement": "2-OG level in plasma", "setting": "[3]; THL 1 mg oral gavage 1 h prior to harvest, vehicle 2.71 ± 0.68", "result": "1.53 ± 0.22", "unit": "pmol/mL"}, {"measurement": "2-PG level in lung", "setting": "[3]; THL 1 mg oral gavage 1 h prior to harvest, vehicle 3.15 ± 0.26", "result": "2.51 ± 0.15", "unit": "nmol/g"}, {"measurement": "2-AG level in lung", "setting": "[3]; THL 1 mg oral gavage 1 h prior to harvest, vehicle 4.47 ± 0.44", "result": "3.73 ± 0.37", "unit": "nmol/g"}, {"measurement": "2-AG level in plasma", "setting": "[3]; THL 1 mg oral gavage 1 h prior to harvest, vehicle 31.59 ± 3.93", "result": "29.34 ± 2.18", "unit": "pmol/mL"}, {"measurement": "2-DG level in plasma", "setting": "[3]; THL 1 mg oral gavage 1 h prior to harvest, vehicle 44.25 ± 11.63", "result": "32.82 ± 1.67", "unit": "pmol/mL"}, {"measurement": "2-PG level in plasma", "setting": "[3]; THL 1 mg oral gavage 1 h prior to harvest, vehicle 46.63 ± 4.97", "result": "51.99 ± 9.87", "unit": "pmol/mL"}, {"measurement": "2-LG level in plasma", "setting": "[3]; THL 1 mg oral gavage 1 h prior to harvest, vehicle 156.32 ± 27.64", "result": "105.12 ± 11.41", "unit": "pmol/mL"}, {"measurement": "effect on levels of MAGs in lung vs vehicle", "setting": "[3]; [4]", "result": "no significant changes"}, {"measurement": "effect on plasma MAGs vs vehicle", "setting": "[3]; [4]", "result": "No significant changes"}, {"measurement": "effect on levels of all MAGs in jejunum mucosa vs vehicle", "setting": "[3]; THL 1 mg oral, 1 h prior to tissue harvest, 24 h food deprived mice", "result": "reduced"}, {"measurement": "2-DG level in jejunum mucosa", "setting": "[3]; mice food deprived 24 h, THL 1 mg oral gavage 1 h prior to harvest, vehicle 7.53 ± 1.40", "result": "0.85 ± 0.13", "unit": "nmol/g"}, {"measurement": "2-PG level in jejunum mucosa", "setting": "[3]; mice food deprived 24 h, THL 1 mg oral gavage 1 h prior to harvest, vehicle 13.52 ± 2.60", "result": "4.91 ± 0.51", "unit": "nmol/g"}, {"measurement": "2-AG level in jejunum mucosa", "setting": "[3]; mice food deprived 24 h, THL 1 mg oral gavage 1 h prior to harvest, vehicle 45.81 ± 7.02", "result": "8.04 ± 1.52", "unit": "nmol/g"}, {"measurement": "2-OG level in jejunum mucosa", "setting": "[3]; mice food deprived 24 h, THL 1 mg oral gavage 1 h prior to harvest, vehicle 100.71 ± 28.93", "result": "5.56 ± 1.10", "unit": "nmol/g"}, {"measurement": "2-LG level in jejunum mucosa", "setting": "[3]; mice food deprived 24 h, THL 1 mg oral gavage 1 h prior to harvest, vehicle 194.08 ± 40.11", "result": "24.61 ± 7.48", "unit": "nmol/g"}]}]}
